# Results: patent publication US20170122958A1, “Enzymes Functional Probes” (University of Dundee, priority 2013, published 2017)
# What was measured:
# Assay in all cases: ITC reverse titration of protein into compound
# Type in all cases: binding
# Brd3(1) = target: T1, Brd3(1) (Homo sapiens, UniProt Q15059); conditions: ITC 30° C., 1% DMSO
# T1 construct: Plasmids of the eight single BET bromodomain constructs Brd2(1), Brd2(2), Brd3(1), Brd3(2); His6 (N); made in house; host or cells: E. coli BL21(DE3)
# Protocol: (§1) Results obtained were very promising, showing small shifts from 1.2° C. to a maximum of 2.6° C. for all the eight BET wild types and shifts from 5.4° C. to 13.4° C. for all the leucine to alanine mutants.
# (§2) For all mutants, protein was titrated at a concentration between 150-200 μM into a solution of the compound at a concentration of 15-20 μM. In the case of the wild types, protein was titrated at a concentration of 350-400 μM into a solution of the compound between 15-20 μM. FIG. 11 is an illustrative example of the curves obtained for the Brd3(1) bromodomain construct and its respective leucine to alanine mutant titrated into compound 11. We can easily observe a hyperbolic shape for the titration of wild type Brd3(1) into compound 11, corresponding to a low affinity interaction, while for Brd3(1)*(Leu070-Ala) we can easily observe a sharp sigmoidal behaviour corresponding to a high affinity interaction. Furthermore, there is a clear difference in the ΔH produced by each interaction. (ΔH=−22 kcal/mol vs. mutant compared to −7 kcal/mol vs. wild type).
# (§3) ITC experiments were carried out on a ITC200 instrument from MicroCal™ Experiments were conducted at 3 different temperatures 15° C., 25° C. and 30° C., while stirring at 1000 rpm. Buffers of proteins, peptide and compounds were matched to 20 mM HEPES pH 7.5 at 25° C. and 100 mM NaCl. Frozen protein was buffer exchanged as described for the DSF experiments. Each titration comprised 1 initial injection of 0.4 μl lasting 0.8 s, followed by 19 injections of 2 μl lasting 4 s each at 2 min intervals. The initial injection was discarded during data analysis. Standard and reverse titrations were conducted depending on the binding partners.
# (§4) Reverse titrations were conducted to test the binding of the known ligands and the novel chemical probes to the wild types and the mutants. Experiments were carried out either at 25° C. or 30° C. For strong binders, a concentration of 150-200 μM of the protein was injected into a solution of 15-20 μM compound. […] In cases where the compound was solubilized in dimethyl sulfoxide, DMSO concentration was adjusted to 1% both in the syringe and in the cell.
# (§5) All the data was fitted to a single binding site model using the Microcal LLC ITC200 Origin software provided by the manufacturer to yield enthalpies of binding (ΔH) and binding constants (Kas). Further thermodynamic parameters were calculated from these values (changes in entropy ΔS, changes in free energy AG and dissociation constants (Kds)).
# Brd3(1)*(Leu070-Ala) = target: T2, Brd3(1)*(Leu070-Ala) (Homo sapiens, UniProt Q15059, L70A); conditions: for Selectivity factor Kd WT/Kd Leu/Ala: 30° C.
# T2 construct: Plasmids of the eight single BET bromodomain constructs Brd2(1), Brd2(2), Brd3(1), Brd3(2), Brd4(1), Brd4(2), Brdt(1) and Brdt(2); His6 (N); made in house; host or cells: E. coli BL21(DE3)
# Protocol: as §1, §2, §3, §4, §5
# brd3(2)L344A = target: T3, brd3(2)L344A (Homo sapiens, UniProt Q15059, L345A); conditions: 30° C.
# T3 construct: Plasmids of the eight single BET bromodomain constructs Brd2(1), Brd2(2), Brd3(1), Brd3(2), Brd4(1), Brd4(2), Brdt(1) and Brdt(2); His6 (N); made in house; host or cells: E. coli BL21(DE3)
# Protocol: as §1, §2, §3, §4, §5
# brd4(1)L094A = target: T4, brd4(1)L094A (Homo sapiens, UniProt O60885, L94A); conditions: 30° C.
# T4 construct: Plasmids of the eight single BET bromodomain constructs Brd2(1), Brd2(2), Brd3(1), Brd3(2), Brd4(1), Brd4(2), Brdt(1) and Brdt(2); His6 (N); made in house; host or cells: E. coli BL21(DE3)
# Protocol: as §1, §2, §3, §4, §5
# brd4(2)L387A = target: T5, brd4(2)L387A (Homo sapiens, UniProt O60885, L387A); conditions: 30° C.
# T5 construct: Plasmids of the eight single BET bromodomain constructs Brd2(1), Brd2(2), Brd3(1), Brd3(2), Brd4(1), Brd4(2), Brdt(1) and Brdt(2); His6 (N); made in house; host or cells: E. coli BL21(DE3)
# Protocol: as §1, §2, §3, §4, §5
# brdt(1)L063A = target: T6, brdt(1)L063A (Homo sapiens, UniProt Q58F21, L63A); conditions: 30° C.
# T6 construct: Plasmids of the eight single BET bromodomain constructs Brd2(1), Brd2(2), Brd3(1), Brd3(2), Brd4(1), Brd4(2), Brdt(1) and Brdt(2); His6 (N); made in house; host or cells: E. coli BL21(DE3)
# Protocol: as §1, §2, §3, §4, §5
# brdt(2)L306A = target: T7, brdt(2)L306A (Homo sapiens, UniProt Q58F21, L306A); conditions: 30° C.
# T7 construct: Plasmids of the eight single BET bromodomain constructs Brd2(1), Brd2(2), Brd3(1), Brd3(2), Brd4(1), Brd4(2), Brdt(1) and Brdt(2); His6 (N); made in house; host or cells: E. coli BL21(DE3)
# Protocol: as §1, §2, §3, §4, §5
# T3 sequence (Q15059 306-415 L345A): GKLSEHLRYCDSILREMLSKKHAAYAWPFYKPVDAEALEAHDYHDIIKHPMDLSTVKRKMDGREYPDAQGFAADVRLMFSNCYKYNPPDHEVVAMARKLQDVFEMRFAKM
# T2 sequence (Q15059 34-140 L70A): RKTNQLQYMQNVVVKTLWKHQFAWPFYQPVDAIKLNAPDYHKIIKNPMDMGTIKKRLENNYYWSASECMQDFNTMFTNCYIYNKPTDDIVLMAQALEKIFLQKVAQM
# T1 sequence (Q15059 34-140 limits assumed): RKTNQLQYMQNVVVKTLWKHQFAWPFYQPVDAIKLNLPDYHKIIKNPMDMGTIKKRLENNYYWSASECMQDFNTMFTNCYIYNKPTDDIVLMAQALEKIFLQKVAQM
smiles,measurement,setting,value
"CC[C@@H](C(=O)OC)[C@@H]1N=C(c2ccc(Cl)cc2)c2cc(OC)ccc2-n2c(C)nnc21 (racemic) [Compound 11, (+−)-methyl (R)-2-((S)-6-(4-chlorophenyl)-8-methoxy-1-methyl-4H-benzo[f][1,2,4]triazolo[4,3-a][1,4]diazepin-4-yl)butanoate]",ΔH wild type Brd3(1),Brd3(1),-7 kcal/mol
same,ΔH Brd3(1)*(Leu070-Ala),"Brd3(1)*(Leu070-Ala); ITC 30° C., 1% DMSO",-22 kcal/mol
same,Selectivity factor Kd WT/Kd Leu/Ala,Brd3(1)*(Leu070-Ala); brd3(1)L070A vs WT brd2(1),244
same,Selectivity factor Kd WT/Kd Leu/Ala,Brd3(1)*(Leu070-Ala); brd3(1)L070A vs WT brd2(2),469
same,Selectivity factor Kd WT/Kd Leu/Ala,Brd3(1)*(Leu070-Ala); brd3(1)L070A vs WT brd3(1),190
same,Selectivity factor Kd WT/Kd Leu/Ala,Brd3(1)*(Leu070-Ala); brd3(1)L070A vs WT brd3(2),202
same,Selectivity factor Kd WT/Kd Leu/Ala,Brd3(1)*(Leu070-Ala); brd3(1)L070A vs WT brd4(1),346
same,Selectivity factor Kd WT/Kd Leu/Ala,Brd3(1)*(Leu070-Ala); brd3(1)L070A vs WT brd4(2),273
same,Selectivity factor Kd WT/Kd Leu/Ala,Brd3(1)*(Leu070-Ala); brd3(1)L070A vs WT brdt(1),233
same,Selectivity factor Kd WT/Kd Leu/Ala,Brd3(1)*(Leu070-Ala); brd3(1)L070A vs WT brdt(2),332
same,Selectivity factor Kd WT/Kd Leu/Ala,brd3(2)L344A; brd3(2)L344A vs WT brd2(1),135
same,Selectivity factor Kd WT/Kd Leu/Ala,brd3(2)L344A; brd3(2)L344A vs WT brd2(2),261
same,Selectivity factor Kd WT/Kd Leu/Ala,brd3(2)L344A; brd3(2)L344A vs WT brd3(1),106
same,Selectivity factor Kd WT/Kd Leu/Ala,brd3(2)L344A; brd3(2)L344A vs WT brd3(2),112
same,Selectivity factor Kd WT/Kd Leu/Ala,brd3(2)L344A; brd3(2)L344A vs WT brd4(1),192
same,Selectivity factor Kd WT/Kd Leu/Ala,brd3(2)L344A; brd3(2)L344A vs WT brd4(2),152
same,Selectivity factor Kd WT/Kd Leu/Ala,brd3(2)L344A; brd3(2)L344A vs WT brdt(1),130
same,Selectivity factor Kd WT/Kd Leu/Ala,brd3(2)L344A; brd3(2)L344A vs WT brdt(2),185
same,Selectivity factor Kd WT/Kd Leu/Ala,brd4(1)L094A; brd4(1)L094A vs WT brd2(1),206
same,Selectivity factor Kd WT/Kd Leu/Ala,brd4(1)L094A; brd4(1)L094A vs WT brd2(2),396
same,Selectivity factor Kd WT/Kd Leu/Ala,brd4(1)L094A; brd4(1)L094A vs WT brd3(1),160
same,Selectivity factor Kd WT/Kd Leu/Ala,brd4(1)L094A; brd4(1)L094A vs WT brd3(2),170
same,Selectivity factor Kd WT/Kd Leu/Ala,brd4(1)L094A; brd4(1)L094A vs WT brd4(1),292
same,Selectivity factor Kd WT/Kd Leu/Ala,brd4(1)L094A; brd4(1)L094A vs WT brd4(2),231
same,Selectivity factor Kd WT/Kd Leu/Ala,brd4(1)L094A; brd4(1)L094A vs WT brdt(1),197
same,Selectivity factor Kd WT/Kd Leu/Ala,brd4(1)L094A; brd4(1)L094A vs WT brdt(2),281
same,Selectivity factor Kd WT/Kd Leu/Ala,brd4(2)L387A; brd4(2)L387A vs WT brd2(1),45
same,Selectivity factor Kd WT/Kd Leu/Ala,brd4(2)L387A; brd4(2)L387A vs WT brd2(2),88
same,Selectivity factor Kd WT/Kd Leu/Ala,brd4(2)L387A; brd4(2)L387A vs WT brd3(2),38
same,Selectivity factor Kd WT/Kd Leu/Ala,brd4(2)L387A; brd4(2)L387A vs WT brd4(1),65
same,Selectivity factor Kd WT/Kd Leu/Ala,brd4(2)L387A; brd4(2)L387A vs WT brd4(2),51
same,Selectivity factor Kd WT/Kd Leu/Ala,brd4(2)L387A; brd4(2)L387A vs WT brdt(1),44
same,Selectivity factor Kd WT/Kd Leu/Ala,brd4(2)L387A; brd4(2)L387A vs WT brdt(2),62
same,Selectivity factor Kd WT/Kd Leu/Ala,brdt(1)L063A; brdt(1)L063A vs WT brd2(1),48
same,Selectivity factor Kd WT/Kd Leu/Ala,brdt(1)L063A; brdt(1)L063A vs WT brd2(2),92
same,Selectivity factor Kd WT/Kd Leu/Ala,brdt(1)L063A; brdt(1)L063A vs WT brd3(1),37
same,Selectivity factor Kd WT/Kd Leu/Ala,brdt(1)L063A; brdt(1)L063A vs WT brd3(2),40
same,Selectivity factor Kd WT/Kd Leu/Ala,brdt(1)L063A; brdt(1)L063A vs WT brd4(1),67
same,Selectivity factor Kd WT/Kd Leu/Ala,brdt(1)L063A; brdt(1)L063A vs WT brd4(2),54
same,Selectivity factor Kd WT/Kd Leu/Ala,brdt(1)L063A; brdt(1)L063A vs WT brdt(1),46
same,Selectivity factor Kd WT/Kd Leu/Ala,brdt(1)L063A; brdt(1)L063A vs WT brdt(2),65
same,Selectivity factor Kd WT/Kd Leu/Ala,brdt(2)L306A; brdt(2)L306A vs WT brd2(1),63
same,Selectivity factor Kd WT/Kd Leu/Ala,brdt(2)L306A; brdt(2)L306A vs WT brd2(2),122
same,Selectivity factor Kd WT/Kd Leu/Ala,brdt(2)L306A; brdt(2)L306A vs WT brd3(1),49
same,Selectivity factor Kd WT/Kd Leu/Ala,brdt(2)L306A; brdt(2)L306A vs WT brd3(2),52
same,Selectivity factor Kd WT/Kd Leu/Ala,brdt(2)L306A; brdt(2)L306A vs WT brd4(1),90
same,Selectivity factor Kd WT/Kd Leu/Ala,brdt(2)L306A; brdt(2)L306A vs WT brd4(2),71
same,Selectivity factor Kd WT/Kd Leu/Ala,brdt(2)L306A; brdt(2)L306A vs WT brdt(1),60
same,Selectivity factor Kd WT/Kd Leu/Ala,brdt(2)L306A; brdt(2)L306A vs WT brdt(2),86
